Laboratory results from patent US20260060972A1, “Quantitative Method of Determining a Mental Status Based on DRD1 and/or DRD5, and its Application Thereof” (priority 2022, published 2026).
Entries after “also recorded” stand apart in the source; their conditions may differ.

Assays:
DRD1 membrane protein = conditions: treatment for 36 hrs
Description: The cultured SH-SY5Y cells were pretreated with complete EMEM medium containing 10 μM SCH23390 for 6 hrs or 12 hrs. […] After treatment, the cells were harvested and processed for mRNA and protein analysis of human DRD1 gene.
The cultured SH-SY5Y cells were pretreated with complete EMEM medium containing 10 μM SKF81297 for 6 hrs or 12 hrs. […] After treatment, the cells were harvested and processed for mRNA and protein analysis of human DRD1 gene
The membrane proteins were extracted using the mem-PER Plus membrane protein extraction kit (ThermoFisher Scinetific, Waltham, MA). The protein concentrations were semi-quantified spectrophotometrically at 280 nm. […] Then, proteins were electro-transferred to a polyvinyl difluoride (PVDF) membrane. […] After the block, the membrane was incubated with primary antibody (human DRD1 antibody, 1:1000) overnight at 4° C. […] The membrane was briefly washed 3 times using fresh TBS, then incubated with Pierce High Sensitivity Streptavidin HRP-linked secondary antibody (1:5000) in TBS supplemented with 0.5% BSA for 30 minutes at room temperature. The membrane was rinsed 3 times using fresh TBS. The immunoreactive protein bands in the membrane were visualized via UVP Biospectrum Imaging system (Upland, CA) using with Immobilon Chemiluminescence reagents (Millipore, Billerica, MA). Protein bands analysis was performed using the ImageJ (NIH, Bethesda, MD).

[1] = test system: 2.8-kb human DRD1 gene promoter; assay: Dual-luciferase reporter assay of human DRD1 gene promoter in SH-SY5Y cells; conditions: for effect on SCH23390/SKF81297-altered DRD1 promoter activity: co-treatment with SCH23390 or SKF81297
human DRD1 gene = assay: DRD1 mRNA expression by quantitative real time-PCR in SH-SY5Y cells; conditions: for DRD1 mRNA expression, time response: 10 μM, 12, 18, 24, 30 or 32 hrs; for effect of Haloperidol co-treatment on SCH23390-decreased DRD1 mRNA expression: Haloperidol 10 μM co-treatment 12 hrs
Description: Time-response study. […] The controls received DMSO only. After each time period, the cells were harvested and processed for mRNA analysis of human DRD1 gene.
After treatment, the cells were harvested and processed for mRNA and protein analysis of human DRD1 gene.
After treatment, the cells were harvested and processed for mRNA and protein analysis of human DRD1 gene
The concentration and purity of total RNAs was determined by Biospectrometer (Eppendorf, Hauppauge, NY) at 260 nm. Only RNA samples with an A260/A280 ratio between 1.8-2.0 were used for cDNA synthesis. Briefly, 3 μg total RNAs were reversely transcribed into cDNA using Random and Oligo 9dT) Primers (cat #PR-C1181, Fisher Scientific, Hanover Park, IL), Oilgo dT (cat #FERSO131, Fisher Scientific, Hanover Park, IL), and SuperScript II reverse transcriptase (Life Technologies, Carlsbad, CA) following the manufacturer's instructions. The synthesized cDNA samples were stored at −20° C.
Each cDNA sample, in duplicate, was placed into 96-well plates and mixed with SYBR Select Master Mix (Life Technologies, Carlsbad, CA) and gene-specific primer set. In general, each SYBR reactions in each well contains 5 ml SYBR Select Master Mix, 0.2 μl 10 μM gene-specific primer set, 1.8 μl deionized distilled water, and 3 μl cDNA samples. The qRT-PCR assay was performed in an AriaMx qRT-PCR system (Agilent Technologies; Santa Clara, CA). The relative mRNA expression of each individual gene was calculated according to the comparative delta-delta CT method. The results were expressed as a relative fold, normalized to the expression of 18s rDNA. All quantitative RT-PCR primers were designed using PubMed Primer-BLAST or Primer3 software (NIH) and synthesized by Eurofins (Eurofins MWG Operon USA, Louisville, KY).
The sequences of RT-PCR primers of human DRD1 are as follows: • Gene human DRD1, forward primer: [Sequence ID: 1] 5′-[sequence]-3′, reverse primer: [Sequence ID: 2] 5′-[sequence]-3′ • Gene 18s rDNA, NM number NR_003278.3, forward primer [Sequence ID: 3] 5′-[sequence]-3′; reverse primer [Sequence ID: 4] 5′-[sequence]-3′

[2] = 10 μM, treatment for 18 hrs (FIG. 2A, 3A)
[3] = 10 μM, treatment for 24 hrs (FIG. 2A, 3A)

## CN1CCc2cc(Cl)c(O)cc2[C@@H](c2ccccc2)C1 [SCH23390, SCH-23390]
DRD1 membrane protein
  decrease of DRD1 membrane protein: more than 70%

## O=C(CCCN1CCC(O)(c2ccc(Cl)cc2)CC1)c1ccc(F)cc1 [Haloperidol]
[1]; 2.8-kb promoter luciferase reporter, SCH23390 and SKF81297 for 36 hrs (FIG. 4A, 4B)
  human DRD1 gene promoter activity, treatment alone: did not change human DRD1 gene promoter activity
[1]; SCH23390 36 hrs, haloperidol cotreatment 24 or 36 hrs (FIG. 4A)
  effect of haloperidol cotreatment on SCH23390-repressed DRD1 promoter activity: reversed
[1]; SKF81297 36 hrs, haloperidol co-treatment 24 and 36 hrs (FIG. 4B)
  effect of haloperidol co-treatment on SKF81297-activated DRD1 promoter activity: markedly attenuated
[1]
  effect on SCH23390/SKF81297-altered DRD1 promoter activity: reversed SCH23390/SKF21897-altered DRD1 promoter activity; also recorded: reversed either SCH23390 or SKF81297-altered human DRD1 promoter activity
Human DRD1 gene; SH-SY5Y cells (FIG. 1A)
  DRD1 mRNA expression, time response: did not alter DRD1 mRNA expression at any time points
Human DRD1 gene; 10 μM, SH-SY5Y cells
  DRD1 mRNA and protein expression, treatment alone (summary): does not alter DRD1 expression
Human DRD1 gene; [2]
  DRD1 mRNA expression, treatment alone: did not alter DRD1 mRNA expression
Human DRD1 gene; [3]
  DRD1 mRNA expression, treatment alone: did not alter DRD1 mRNA expression
Human DRD1 gene; Haloperidol co-treatment for 12 hrs (FIG. 3A)
  effect of Haloperidol co-treatment on SKF81297-increased DRD1 mRNA expression: completely diminished SKF81297-increased DRD1 mRNA expression
Human DRD1 gene; SCH23390 10 μM for 18 hrs
  effect of Haloperidol co-treatment on SCH23390-decreased DRD1 mRNA expression: completely reversed
Human DRD1 gene; SCH23390 10 μM for 24 hrs
  effect of Haloperidol co-treatment on SCH23390-decreased DRD1 mRNA expression: not reversed
Human DRD1 gene; SH-SY5Y cells (FIGS. 2A-2E)
  effect of Haloperidol co-treatment on SCH23390-decreased DRD1 mRNA and protein expression (summary): reverses SCH23390-decreased DRD1 mRNA and protein expression; also recorded: reversed
Human DRD1 gene; SH-SY5Y cells (FIGS. 3A-3E)
  effect of Haloperidol co-treatment on SKF81297-increased DRD1 mRNA and protein expression (summary): attenuated SKF81297-increased DRD1 mRNA and protein expression

## Cc1nc2n(c(=O)c1CCN1CCC(c3noc4cc(F)ccc34)CC1)CCCC2 [Risperidone]
[1]; co-treatment of SCH (FIG. 5A, 6A)
  relative Luciferase activity of DRD1 under treatment of SCH and antipsychotic: partial DRD1 antagonist effect
[1]; co-treatment of SKF (FIG. 5B, 6B)
  relative Luciferase activity of DRD1 under treatment of SKF and antipsychotic: partial DRD1 antagonist effect
[1]
  effect on SCH23390/SKF81297-altered DRD1 promoter activity: trans-stabilize SCH23390/SKF81297-altered DRD1 promoter activity; also recorded: reverse and normalize either SCH23390 or SKF81297-altered human DRD1 promoter activity

## CN(C)C(=O)N[C@H]1CC[C@H](CCN2CCN(c3cccc(Cl)c3Cl)CC2)CC1 [Cariprazine]
[1]
  effect on SCH23390/SKF81297-altered DRD1 promoter activity: trans-stabilize SCH23390/SKF81297-altered DRD1 promoter activity

## Oc1cc2c(c(Cl)c1O)CCNCC2c1ccccc1 (stereo not drawn) [SKF81297, SKF-81297]
Human DRD1 gene; SH-SY5Y cells (FIG. 1A)
  DRD1 mRNA expression, time response: time-dependently increased DRD1 mRNA expression
Human DRD1 gene; 10 μM, 24 hrs later, SH-SY5Y cells (FIG. 1A)
  increase of DRD1 mRNA expression: 6 fold
Human DRD1 gene; 10 μM, 30 hrs later and thereafter, SH-SY5Y cells
  DRD1 mRNA expression 30 hrs later and thereafter: decreased to basal level
Human DRD1 gene; 10 μM, SH-SY5Y cells
  DRD1 mRNA and protein expression, treatment alone (summary): increases DRD1 mRNA and protein expression in a time-dependent manner
Human DRD1 gene; [2]
  DRD1 mRNA expression, treatment alone: increased human DRD1 mRNA expression
Human DRD1 gene; [3]
  DRD1 mRNA expression, treatment alone: increased human DRD1 mRNA expression
